Source: patent US20090291857A1, “METHODS TO IDENTIFY INHIBITORS OF THE UNFOLDED PROTEIN RESPONSE” (THE BOARD OF TRUSTEES OF THE LELAND STANFORD JUNIOR …, priority 2006, published 2009)

How the values were obtained:
JNK1 = JNK1 activation under ER stress; format: cell-based, human; conditions: 2.5 μM, 2 hour preincubation, Tm 4 μg/ml 1.5 hrs
Experimental: HT1080 cells were exposed to DMSO vehicle (lane 1), irestatin 9389 (2.5 μM; lane 2) for 16 hours or Tm (5 μg/ml; lane 3) for 8 hours. Following treatments, cells were harvested, lysed, and analyzed by immunoblotting using anti-Grp78 antibody (top) or anti-actin (bottom) as a loading control. B. Effect of irestatin 9389 on IRE1α expression and kinase function. HT1080 cells were preincubated for 16 hours with either vehicle or irestatin 9389 (2.5 μM), followed by addition of Tm (5 μg/ml) for the indicated times. Cell lysates were analyzed by Western immunoblotting using anti-IRE1α (bottom) or anti-phospho-IRE1α antibodies (top). C. Effect of irestatins on JNK1 activation under ER stress. HT1080 cells were untreated (lane 1), exposed to TNF-α (10 ng/ml, 10 min), or Tm (4 μg/ml, 1.5 hrs) (lanes 3-8) following a 2 hour preincubation in the presence of vehicle (lane 3) or the indicated irestatins (2.5 μM; lanes 4-8). Lysates were analyzed by Western blot using antisera specific for phospho-JNK1 (top) or total JNK1 (bottom). […] F. Quantification of RNA cleavage kinetics. […] Samples were analyzed as in (E).
Activation of IRE1α is preceded by ATP binding and autophosphorylation, and the IRE1α kinase is required for endonuclease activity. […] Cells were then harvested at regular intervals, and activation of the IRE1α kinase was assessed by immunoblotting using anti-phospho-IRE1α antisera.

XBP-luciferase reporter = experiment: In vivo bioluminescence imaging of XBP-luciferase tumor xenografts; design: species or system mouse
Experimental: HT1080 fibrosarcoma cells (2×10^6) stably expressing the XBP-luciferase reporter were implanted s.c. into severe combined immune deficient (SCID) mice. Ten minutes prior to imaging, mice were injected i.p. with D-luciferin (150 mg/kg) solubilized in PBS. Optical bioluminescence imaging was performed using the IVIS charged-coupled device camera system (Caliper Life Sciences, Hopkinton, Mass.). Mice were imaged for 1-4 minutes per acquisition scan. Signal intensities were analyzed using Living Image software (Caliper).
A. Irestatin 9389 impairs IREla activity in implanted tumor xenografts. Equal numbers (2×10^6) of XBP-luciferase or CMV-luciferase reporter cells were implanted s.c. into SCID mice. After one week, mice were treated with irestatin 9389 (50 mg/kg), followed by optical bioluminescence imaging. B. Inhibition of tumor growth by irestatin 9389. […] Tumor volumes were calculated based on caliper measurements taken every 3-5 days. Data points represent the mean volume calculated from at least 7 tumors per group, with SEM shown in one direction. […]
The increased sensitivity of irestatin-treated cells to hypoxic stress in vitro indicate that selective inhibition of IRE1α signaling could impact tumor growth. […] In contrast, XBP-1s was not detected in normal pancreas specimens (0/20), and infrequently observed in chronic pancreatitis (1/29) (FIG. 15). […]

[1] = Analysis of blood chemistry and cell composition; format: in vivo, mouse
Experimental: Complete blood counts (CBC's) and clinical chemistry panels were performed on blood obtained by cardiac puncture after euthanasia with CO2. Gross necropsies were performed, all major viscera were harvested, fixed in 10% buffered neutral formalin, routinely processed for paraffin embedding, and stained with hematoxylin and eosin (H&E). Sections were analyzed by a board-certified veterinary pathologist (DMB).
The increased sensitivity of irestatin-treated cells to hypoxic stress in vitro indicate that selective inhibition of IRE1α signaling could impact tumor growth. […] In contrast, XBP-1s was not detected in normal pancreas specimens (0/20), and infrequently observed in chronic pancreatitis (1/29) (FIG. 15). To explore the effects to irestatin 9389 in vivo, we first established animal dosing parameters using real-time bioluminescence imaging of SCID mice that had been implanted subcutaneously (s.c.) with tumor cells stably expressing the XBP-luciferase reporter. […] The XBP-luciferase signal returned to basal levels by 24 hours after treatment. […] (FIG. 16).

[2] = Toxicity of increasing doses in SCID mice; format: in vivo
Experimental: Female 4-6 week-old SCID (B6.CB17) mice supplied by Stanford University Animal Facility were housed in the same facility (American Association of Laboratory Animal Care-approved) with 12 hour light cycles. Food and water were provided ad libitum. All experiments were approved by the institutional care and use committee. The potential toxicities of irestatin 9389 were examined in SCID mice injected i.p. once daily over 4 consecutive days with increasing doses of irestatin 9389 or vehicle control. […] For xenografts, 2×10^6 HT1080 fibrosarcoma cells were resuspended in 50-75 μl PBS and injected s.c. in the dorsal flanks of host mice. When the implanted tumors reached a mean volume of ˜150 mm^3, mice were randomly assigned into different treatment groups. Mice were dosed by i.p. bolus injection with either vehicle (50% DMSO, 20% cremophor EL, 30% ethanol) or irestatin 9389 (50 mg/kg). Tumors (6-8 per group) were measured every 2-4 days with calipers. Tumor volume was calculated using the formula [(W^2×L) 0.52] where W=width and L=length.

[3] = system: PANC1 pancreatic adenocarcinoma cells; experiment: PANC1 tumor growth in nude mice; format: in vivo, mouse; conditions: 60 mg/kg bolus every 48 hours, 5 doses, 5-7 tumors per group
Experimental: Dose: 60 mg/kg ip bolus injection every 48 hours. 5 total doses. 5-7 tumors per group. PANC1 pancreatic adenocarcinoma cell line.
PANC1 pancreatic adenocarcinoma cells were implanted subcutaneously into nude mice. Mice were then given a bolus injection of one of the inventive irestatins (1401, 9337, 3611 or 9389) at a dose of 60 mg/kg every 48 hours for a total of 5 doses, with 5-7 tumors being treated per group.

Cc1csc(NC(=O)CSc2nc3c(c(C(F)(F)F)c2C#N)CCC3)n1 [Compound 9389]
phosphorylation of JNK1 during Tm-induced ER stress (JNK1): failed to block the phosphorylation of JNK1
duration of robust inhibition of the XBP-luciferase reporter after injection (XBP-luciferase reporter; SCID mice, single doses of 50-60 mg/kg): 6 to 8 h
time at which XBP-luciferase signal returned to basal levels (XBP-luciferase reporter; after treatment): ≤ 24 h
fasting blood glucose levels versus vehicle ([1]; 50 mg/kg): no significant difference
HCT ([1]; mean, irestatin-treated mice, complete blood count): 47%
Total Bilirubin ([1]; mean, irestatin-treated mice, terminal cardiac blood): 0.3 mg/dL
toxicity of dosing regimen ([2]; SCID mice, i.p., 50-60 mg/kg): without apparent toxicity
dosing regimen of 50-60 mg/kg relative to LD50 ([2]; female, SCID (B6.CB17), mouse, in vivo, 4 days): 75 % of the LD50 value
tumor growth [3]: significant tumor growth was observed in untreated mice, but not in mice treated with the irestatins
